Measured values taken from publication PMC9393165 (Scientific Reports, 2022).

Experiments:
[1] = Early-morning blood pressure and pulse rate in kidney transplant recipients; type: in vivo, human; details: for Diastolic blood pressure / Pulse rate: diltiazem 30 mg every 12 h
Method: All patients received a fixed dose of omeprazole 40 mg/day.
For calculation of AUC/D and C0/D, values of AUC and C0 were dose-adjusted by dividing the observed values by the dose recorded on the day of blood collection. Early-morning blood pressures were measured on the same day of blood collection for pharmacokinetic analysis by a ward nurse as part of a routine examination, during rest in a seated position with a calibrated and well-maintained automatic sphygmomanometer. Delayed graft function (DGF) was defined as failure of the kidney graft to function immediately, with the need for dialysis in the first 7 days post-KT. Episode of biopsy-proven acute rejection (BPAR) during 3 months post-KT was diagnosed based on histologic findings in indication kidney graft biopsy according to Banff 2015 criteria.

[2] = diltiazem 30 mg three times daily; day 7 after KT; CYP3A5 expressers; cited from earlier work
[3] = day 3 post-transplantation, CYP3A5 expressers (n = 11), mean ± SD
[4] = day 3 post-transplantation, CYP3A5 non-expressers (n = 9), mean ± SD
[5] = day 7 post-transplantation, CYP3A5 expressers (n = 11), mean ± SD
[6] = day 7 post-transplantation, CYP3A5 non-expressers (n = 9), mean ± SD

COc1ccc([C@@H]2Sc3ccccc3N(CCN(C)C)C(=O)[C@@H]2OC(C)=O)cc1 [Diltiazem]
Diastolic blood pressure ([1]; day 1 post-transplantation, CYP3A5 expressers (n = 11), mean ± SD): 89.2 ± 13.3 mmHg
Pulse rate ([1]; day 1 post-transplantation, CYP3A5 expressers (n = 11), median (IQR)): 82.0 (74.0, 86.0) bpm
Diastolic blood pressure ([1]; day 1 post-transplantation, CYP3A5 non-expressers (n = 9), mean ± SD): 87.4 ± 14.8 mmHg
Pulse rate ([1]; day 1 post-transplantation, CYP3A5 non-expressers (n = 9), median (IQR)): 82.0 (73.0, 86.0) bpm
Diastolic blood pressure [1, 3]: 86.8 ± 13.5 mmHg
Pulse rate [1, 3]: 86.6 ± 15.4 bpm
Diastolic blood pressure [1, 4]: 84.3 ± 14.0 mmHg
Pulse rate [1, 4]: 82.4 ± 7.2 bpm
Diastolic blood pressure [1, 5]: 77.8 ± 13.3 mmHg
Pulse rate [1, 5]: 80.2 ± 11.2 bpm
Diastolic blood pressure [1, 6]: 81.0 ± 7.3 mmHg
Pulse rate [1, 6]: 81.8 ± 8.6 bpm
Effects on blood pressure ([1]; diltiazem 60 mg/day, first week post-KT): No significant effects on blood pressure
Effect of diltiazem coadministration on tacrolimus dose-adjusted trough concentration (C0/D) [2]: Significantly higher
